From US20130102595A1 (Curis, Inc., priority 2011, published 2013)

Tests used:
PI3Kα (p110α/p85α) = biological target: T1, PI3Kα (p110α/p85α) (Homo sapiens, UniProt P42336); assay: PI3Kα ADP-Glo assay; type: biochemical; details: 20 μM PIP2, 10 μM ATP, 30 minutes
T1 construct: GST (N); made in house; host or cells: Baculovirus-infected Sf9 cells
Procedure, shortened: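 Luminescent ADP-Glo detection, after depletion of residual ATP, quantified ADP made by PI3Kα phosphorylating 20 μM PIP2 at 10 μM ATP. The kinase step ran 30 min at room temperature in HEPES pH 7.4 with MgCl2, DTT and orthovanadate, using baculovirus/Sf9-expressed full-length p110α/p85α complex.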

[1] = system: HDACs (HeLa cell nuclear extracts); assay: HDAC enzymatic activity, Biomol Color de Lys system; type: biochemical; details: 1 hour, 25° C.
Procedure, shortened: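 IC50 from sigmoidal fit of developer-terminated fluorescence (ex 350-380/em 440-460 nm). Reaction: 1 h at room temperature (25 °C), HeLa nuclear extract as HDAC source, artificial substrate, buffer of 50 mM Tris/Cl pH 8.0 with 137 mM NaCl, 2.7 mM KCl and 1 mM MgCl2.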

[2] = biological target: T2, mTor serine/threonine protein kinase (Homo sapiens, UniProt P42345); assay: mTor kinase radioisotope assay; type: biochemical; details: 70 uM ATP, 40 minutes; read-out: m-TOR IC50
T2 construct: FLAG; made in house; host or cells: Baculovirus expression system in Sf21 cells
Protocol: (F) an In Vitro Assay which-Determines the Ability of a Test Compound to Inhibit mTor Serine/Threonine Protein Kinase.
The ability of compounds to inhibit mTor activity was assayed using standard radioisotope assay for kinase. Briefly, FLAG-tagged, recombinant full-length human mTor (GenBank accession No. NM_004958) was expressed using baculovirus expression system in Sf21 cells and purified using antibody affinity column. Purified enzyme was incubated with c-terminal fragment of p70S6K as it's substrate in the presence of ATP. p33 ATP tracers were included in the assay to monitor the enzyme activity. Final assay condition was with 50 mM HEPES pH 7.5, 1 mM EGTA, 0.01% Tween 20, 2 mg/ml substrate, 3 mM Manganese Chloride and 70 uM of ATP and was carried out at room temperature for 40 minutes. The reaction was then stopped by the addition of 3% phosphoric acid solution. 10 ul of the reaction was spotted onto a P30 filtermat and washed three times for 5 minutes in 75 mM phosphoric acid and once in methanol prior to drying and scintillation counting. Different concentrations of compounds were added to reaction to assess the activity of compounds to inhibit mTor kinase. IC50 was calculated using Prism software with sigmoidal dose-response curve fitting.

T1 sequence (P42336 whole entry): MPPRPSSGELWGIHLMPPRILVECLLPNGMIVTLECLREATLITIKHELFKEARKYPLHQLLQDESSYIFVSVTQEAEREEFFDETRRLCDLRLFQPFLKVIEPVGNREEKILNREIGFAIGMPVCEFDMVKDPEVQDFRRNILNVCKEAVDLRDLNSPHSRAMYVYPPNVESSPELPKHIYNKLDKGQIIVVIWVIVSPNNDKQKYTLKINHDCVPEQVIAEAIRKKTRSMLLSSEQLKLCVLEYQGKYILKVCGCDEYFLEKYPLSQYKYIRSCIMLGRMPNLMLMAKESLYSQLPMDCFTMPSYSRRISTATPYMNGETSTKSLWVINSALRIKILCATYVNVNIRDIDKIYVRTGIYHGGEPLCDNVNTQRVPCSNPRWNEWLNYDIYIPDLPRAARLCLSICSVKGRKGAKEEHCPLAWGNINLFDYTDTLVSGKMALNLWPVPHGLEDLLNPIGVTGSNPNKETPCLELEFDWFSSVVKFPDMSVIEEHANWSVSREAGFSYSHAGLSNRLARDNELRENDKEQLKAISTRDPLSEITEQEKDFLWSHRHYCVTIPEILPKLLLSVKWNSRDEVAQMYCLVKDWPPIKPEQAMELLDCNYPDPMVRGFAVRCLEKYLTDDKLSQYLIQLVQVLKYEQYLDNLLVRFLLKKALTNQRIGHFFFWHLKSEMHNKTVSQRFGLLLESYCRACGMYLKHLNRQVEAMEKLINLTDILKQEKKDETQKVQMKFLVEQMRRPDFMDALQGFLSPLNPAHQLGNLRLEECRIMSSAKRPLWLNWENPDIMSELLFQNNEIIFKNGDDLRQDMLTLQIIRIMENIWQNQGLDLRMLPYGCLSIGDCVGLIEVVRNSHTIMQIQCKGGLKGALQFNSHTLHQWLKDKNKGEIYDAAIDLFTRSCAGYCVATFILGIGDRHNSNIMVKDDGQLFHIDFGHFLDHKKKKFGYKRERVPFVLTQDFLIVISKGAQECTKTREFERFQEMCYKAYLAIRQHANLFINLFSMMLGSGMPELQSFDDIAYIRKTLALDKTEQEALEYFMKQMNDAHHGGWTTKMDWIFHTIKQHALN
T1 sequence (P27986 whole entry partner): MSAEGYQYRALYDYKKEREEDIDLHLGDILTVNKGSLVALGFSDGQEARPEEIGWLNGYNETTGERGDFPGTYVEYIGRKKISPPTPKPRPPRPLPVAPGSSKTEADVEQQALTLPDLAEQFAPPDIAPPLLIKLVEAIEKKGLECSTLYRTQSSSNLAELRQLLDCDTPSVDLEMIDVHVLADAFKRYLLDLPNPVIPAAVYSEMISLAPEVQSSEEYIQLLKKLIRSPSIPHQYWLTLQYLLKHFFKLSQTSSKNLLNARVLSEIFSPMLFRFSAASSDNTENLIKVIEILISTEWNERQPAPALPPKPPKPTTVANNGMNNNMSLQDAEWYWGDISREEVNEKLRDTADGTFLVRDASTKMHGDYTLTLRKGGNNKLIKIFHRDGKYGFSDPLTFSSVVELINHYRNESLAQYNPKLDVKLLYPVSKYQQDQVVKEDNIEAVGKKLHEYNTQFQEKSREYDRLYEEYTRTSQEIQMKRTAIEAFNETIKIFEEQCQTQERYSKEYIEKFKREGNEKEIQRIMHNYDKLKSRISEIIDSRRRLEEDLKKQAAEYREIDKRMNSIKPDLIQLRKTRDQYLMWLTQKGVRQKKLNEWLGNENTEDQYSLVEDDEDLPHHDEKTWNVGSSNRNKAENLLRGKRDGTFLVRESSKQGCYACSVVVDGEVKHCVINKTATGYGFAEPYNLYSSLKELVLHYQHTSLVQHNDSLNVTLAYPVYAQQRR

Row | Compound | IC50 (PI3Kα (p110α/p85α)) | melting point | IC50 [1] | IC50 [2]
1 | O=C(NO)c1cnc(N2CCC(CNCc3cc4nc(-c5cccc6[nH]ncc56)nc(N5CCOCC5)c4s3)CC2)nc1 [Compound 15, 2-(4-(((2-(1H-indazol-4-yl)-4-morpholinothieno[3,2-d]pyrimidin-6-yl)methylamino)methyl)piperidin-1-yl)-N-hydroxypyrimidine-5-carboxamide] | 100 to 1000 nM | 170 to 172 °C | < 100 nM | > 10000 nM
2 | CN(Cc1cc2nc(-c3cccc4[nH]ncc34)nc(N3CCOCC3)c2s1)CC1CCN(c2ncc(C(=O)NO)cn2)CC1 [Compound 16, 2-(4-((((2-(1H-indazol-4-yl)-4-morpholinothieno[3,2-d]pyrimidin-6-yl)methyl)(methyl)amino)methyl)piperidin-1-yl)-N-hydroxypyrimidine-5-carboxamide] | < 100 nM | 174 to 175 °C | 100 to 1000 nM | 1000 to 10000 nM
3 | O=C(CCCCCNCc1cc2nc(-c3cccc4[nH]ncc34)nc(N3CCOCC3)c2s1)NO [Compound 43, 6-((2-(1H-indazol-4-yl)-4-morpholinothieno[3,2-d]pyrimidin-6-yl)methylamino)-N-hydroxyhexanamide] | 1000 to 10000 nM | 128 to 130 °C | < 100 nM | 1000 to 10000 nM
4 | CN(Cc1cc2nc(-c3cc(F)cc4[nH]ncc34)nc(N3CCOCC3)c2s1)c1ncc(C(=O)NO)cn1 [Compound 69, 2-(((2-(6-fluoro-1H-indazol-4-yl)-4-morpholinothieno[3,2-d]pyrimidin-6-yl)methyl)(methyl)amino)-N-hydroxypyrimidine-5-carboxamide] | < 100 nM | 215 to 217 °C | < 100 nM | 1000 to 10000 nM
5 | CC(=O)OCCN(Cc1cc2nc(-c3cccc4[nH]ncc34)nc(N3CCOCC3)c2s1)c1ncc(C(=O)NO)cn1 [Compound 87] | < 100 nM |  | < 100 nM | 1000 to 10000 nM
6 | COC(=O)CN(Cc1cc2nc(-c3cccc4[nH]ncc34)nc(N3CCOCC3)c2s1)c1ncc(C(=O)NO)cn1 [Compound 89] | < 100 nM |  | < 100 nM | 1000 to 10000 nM
7 | N#CCCN(Cc1cc2nc(-c3cccc4[nH]ncc34)nc(N3CCOCC3)c2s1)c1ncc(C(=O)NO)cn1 [Compound 99] | < 100 nM |  | < 100 nM | 100 to 1000 nM
8 | CN(CCCC(=O)NO)Cc1cc2nc(-c3cccc4[nH]ncc34)nc(N3CCOCC3)c2s1 [Compound 101, 4-(((2-(1H-indazol-4-yl)-4-morpholinothieno[3,2-d]pyrimidin-6-yl)methyl)(methyl)amino)-N-hydroxybutanamide] | 100 to 1000 nM | 115 to 118 °C | > 10000 nM | 100 to 1000 nM
9 | CN(CCCCC(=O)NO)Cc1cc2nc(-c3cccc4[nH]ncc34)nc(N3CCOCC3)c2s1 [Compound 102, 5-(((2-(1H-indazol-4-yl)-4-morpholinothieno[3,2-d]pyrimidin-6-yl)methyl)(methyl)amino)-N-hydroxypentanamide] | 100 to 1000 nM | 120 to 122 °C | 100 to 1000 nM | 100 to 1000 nM
10 | CN(Cc1cc2nc(-c3cccnc3)nc(N3CCOCC3)c2s1)c1ncc(C(=O)NO)cn1 [Compound 109, N-hydroxy-2-(methyl((4-morpholino-2-(pyridin-3-yl)thieno[3,2-d]pyrimidin-6-yl)methyl)amino)pyrimidine-5-carboxamide] | < 100 nM | 160 to 164 °C | < 100 nM | 100 to 1000 nM
11 | CN(C)c1ncc(-c2nc(N3CCOCC3)c3sc(CN(C)c4ncc(C(=O)NO)cn4)cc3n2)cn1 [Compound 117, 2-(((2-(2-(dimethylamino)pyrimidin-5-yl)-4-morpholinothieno[3,2-d]pyrimidin-6-yl)methyl)(methyl)amino)-N-hydroxypyrimidine-5-carboxamide] | < 100 nM | 200 to 206 °C | < 100 nM | 1000 to 10000 nM
12 | CCc1ncc(-c2nc(N3CCOCC3)c3sc(CN(C)c4ncc(C(=O)NO)cn4)cc3n2)cn1 [Compound 121, 2-(((2-(2-ethylpyrimidin-5-yl)-4-morpholinothieno[3,2-d]pyrimidin-6-yl)methyl)(methyl)amino)-N-hydroxypyrimidine-5-carboxamide] | < 100 nM | 153 to 156 °C | < 100 nM | 1000 to 10000 nM
13 | CC(=O)NCc1ccc(-c2nc(N3CCOCC3)c3sc(CN(C)c4ncc(C(=O)NO)cn4)cc3n2)cc1 [Compound 136, 2-(((2-(4-(acetamidomethyl)phenyl)-4-morpholinothieno[3,2-d]pyrimidin-6-yl)methyl)(methyl)amino)-N-hydroxypyrimidine-5-carboxamide] | > 10000 nM | 178 to 180 °C |  | > 10000 nM
14 | CN(Cc1cc2nc(-c3cccc(C(N)=O)c3)nc(N3CCOCC3)c2s1)c1ncc(C(=O)NO)cn1 [Compound 142, 2-(((2-(3-carbamoylphenyl)-4-morpholinothieno[3,2-d]pyrimidin-6-yl)methyl)(methyl)amino)-N-hydroxypyrimidine-5-carboxamide] | 100 to 1000 nM |  | < 100 nM | 100 to 1000 nM
15 | CN(Cc1cc2nc(-c3cccc4c3CC(=O)N4)nc(N3CCOCC3)c2s1)c1ncc(C(=O)NO)cn1 [Compound 178] | > 10000 nM |  | < 100 nM | > 10000 nM
16 | CN(Cc1cc2nc(-c3cccc4c3CNC4=O)nc(N3CCOCC3)c2s1)c1ncc(C(=O)NO)cn1 [Compound 181] | 1000 to 10000 nM |  | < 100 nM | > 10000 nM
17 | CN(Cc1cc2nc(-c3ccc4c(c3)NC(=O)CO4)nc(N3CCOCC3)c2s1)c1ncc(C(=O)NO)cn1 [Compound 183] | > 10000 nM |  | < 100 nM | > 10000 nM
18 | CN(Cc1cc2nc(-c3c[nH]c4ccccc34)nc(N3CCOCC3)c2s1)c1ncc(C(=O)NO)cn1 [Compound 184] | 1000 to 10000 nM |  | < 100 nM | 100 to 1000 nM
19 | CN(Cc1cc2nc(-c3cnn(C)c3)nc(N3CCOCC3)c2s1)c1ncc(C(=O)NO)cn1 [Compound 246, N-Hydroxy-2-(methyl((2-(1-methyl-1H-pyrazol-4-yl)-4-morpholinothieno[3,2-d]pyrimidin-6-yl)methyl)amino)pyrimidine-5-carboxamide] | 100 to 1000 nM | 164 to 169 °C | < 100 nM | > 10000 nM
20 | COc1ccc(-c2nc(N3CCOCC3)c3sc(CN(CCO)c4ncc(C(=O)NO)cn4)cc3n2)cn1 [Compound 265] | < 100 nM |  | < 100 nM | > 10000 nM
21 | Nc1ccc(-c2nc(N3CCOCC3)c3sc(CN(CCO)c4ncc(C(=O)NO)cn4)cc3n2)cc1 [Compound 274] | < 100 nM |  | < 100 nM | 100 to 1000 nM
22 | CN(Cc1cc2nc(-c3ccc([N+](=O)[O-])c(O)c3)nc(N3CCOCC3)c2s1)c1ncc(C(=O)NO)cn1 [Compound 293, N-Hydroxy-2-(((2-(3-hydroxy-4-nitrophenyl)-4-morpholinothieno[3,2-d]pyrimidin-6-yl)methyl)(methyl)amino)pyrimidine-5-carboxamide] | < 100 nM |  | < 100 nM | > 10000 nM
23 | CC(=O)c1ccc(F)c(-c2nc(N3CCOCC3)c3sc(CN(C)c4ncc(C(=O)NO)cn4)cc3n2)c1 [Compound 301] | 1000 to 10000 nM |  | < 100 nM | > 10000 nM
24 | Cc1ncc(-c2nc(N3CCOCC3)c3sc(CN(C)c4ncc(C(=O)NO)cn4)cc3n2)s1 [Compound 311] | 100 to 1000 nM |  | < 100 nM | > 10000 nM
25 | Cn1cc(-c2nc(N3CCOCC3)c3sc(CN(CCO)c4ncc(C(=O)NO)cn4)cc3n2)cn1 [Compound 313] | 100 to 1000 nM |  | < 100 nM | > 10000 nM
26 | CN(Cc1cc2nc(-c3cccc4[nH]c(=O)[nH]c34)nc(N3CCOCC3)c2s1)c1ncc(C(=O)NO)cn1 [Compound 314] | 100 to 1000 nM |  | < 100 nM | > 10000 nM
27 | CS(=O)(=O)N1CCN(Cc2cc3nc(-c4ccc(OCCCCCCC(=O)NO)cc4)nc(N4CCOCC4)c3s2)CC1 [Compound 321, N-Hydroxy-7-(4-(6-((4-(methylsulfonyl)piperazin-1-yl)methyl)-4-morpholinothieno[3,2-d]pyrimidin-2-yl)phenoxy)heptanamide] | 100 to 1000 nM | 143 to 145 °C | 100 to 1000 nM | 
